From publication PMC2929268 (The Journal of organic chemistry, 2010)

Experiments:
hMC4R [1] = biological target: T1, hMC4R (Homo sapiens, UniProt P32245); test: Assay A: europium-based competitive binding assay with probe 17; settings: over the range of concentrations tested
hMC4R [2] = biological target: T1, hMC4R; test: Assay B: europium-based competitive binding assay with probe 18; settings: over the range of concentrations tested

T1 sequence (P32245 whole entry): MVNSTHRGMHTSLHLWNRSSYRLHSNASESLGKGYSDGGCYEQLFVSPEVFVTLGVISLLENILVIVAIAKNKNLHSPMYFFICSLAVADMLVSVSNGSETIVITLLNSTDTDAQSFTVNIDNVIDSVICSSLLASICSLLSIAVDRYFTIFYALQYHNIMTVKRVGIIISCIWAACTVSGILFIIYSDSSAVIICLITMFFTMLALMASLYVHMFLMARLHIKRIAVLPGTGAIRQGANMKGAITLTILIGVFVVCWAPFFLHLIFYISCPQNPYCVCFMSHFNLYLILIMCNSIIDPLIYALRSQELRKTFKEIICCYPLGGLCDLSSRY

blocking probe 17 from binding to hMC4R (hMC4R [1]): ineffective | blocking probe 18 from binding to hMC4R (hMC4R [2]): ineffective
SMILES: CCCCc1cn(CCCCCC(=O)NC(CO)C(N)=O)nn1 (centres unmarked) [Compound 11, N-(1-Amino-3-hydroxy-1-oxopropan-2-yl)-6-(4-butyl-1H-1,2,3-triazol-1-yl)hexanamide]
